SMILES strings stand for the structures. Like-named read-outs stand apart in the source and are kept apart here. Peptide text beside a SMILES is read from it. * marks the point of attachment. X2 = O=C1OC2(C(=O)*)C3C4CC5C6C4C2C6C1(O)C53; X1 = O=C1NC2(N*)C3C4CC5C6C4C2C6C1(O)C53

The conditions of data set [1]: 1H NMR, ref [19],[20], cited from earlier work. The method, then: It is therefore most likely that the lactam form is the active form in aqueous solution (also used for the IC50 experiments). The conformation for the amide side chain with the lowest energy was determined. In both cases this conformation involved intramolecular hydrogen bonding (O5 ...
Data set [2] concerns the target T1, wild type C-South African (C-SA) HIV-1 protease (Human immunodeficiency virus type 1 group M subtype B, UniProt P12497, H557K/I503V/I581L/L507I/L577M/M524I/R529K/T500S).
T1 construct: Over-expression, extraction and purification of the C-SA protease and in vitro HIV-1 protease activity were reported in our earlier publications; made in house
Nature of the data set: in vitro HIV-1 protease inhibition (C-SA PR). Format: biochemical, HIV-1 subtype C. From the text:
Over-expression, extraction and purification of the C-SA protease and in vitro HIV-1 protease activity were reported in our earlier publications. Genetic diversity among HIV-1 subtypes ranges between 25 and 35% at the nucleotide level and variation within subtypes vary from 15 to 20% [48, 49].
The HIV-1 subtype C PR that predominates in South Africa (C-SA PR) is defined as the consensus subtype C PR [51]. This C-SA PR contains eight polymorphic sites (T12S, I15V, L19I, M36I, R41K, H69K, L89M, and I93L) in relation to the wild-type subtype B HIV-1 PR [52].
The procedures followed were the same as reported before ^12,13.

As to `CC(=O)NC12NC(=O)C3(O)C4C5CC(C6C5C3C61)C42` (racemic) [PCU-lactam], the tautomer preference result in data set [1] ((CD3)2SO) is “major tautomer”. As for `CC(=O)NC12N=C(O)C3(O)C4C5CC(C6C5C3C61)C42` (racemic) [PCU-lactim], the tautomer preference result in data set [1] (dioxane) is reported as “dominant”. In general, IC50 refers to the point on the concentration scale where inhibition reaches its midpoint. Lower therefore signals greater potency. With `COC(=O)N[C@H](C(=O)N[C@@H](Cc1ccccc1)[C@@H](O)CN(Cc1ccc(-c2ccccn2)cc1)NC(=O)[C@@H](NC(=O)OC)C(C)(C)C)C(C)(C)C` [Atazanavir, reference compound], in data set [2], inhibition was half-maximal at 4 ± 0.71 nM (IC50). For the compound `CC[C@H](C)[C@H](NC(=O)[C@@H](N)CO)C(=O)N[C@@H](C)C(=O)N[C@@H](CCC(=O)O)C(=O)NC12NC(=O)C3(O)C4C5CC(C6C5C3C61)C42` (some centres unmarked) [PCU-lactam-NH-EAIS] (H-SIAE-X1), the IC50 in data set [2] is about 78 nM. Turning to `CC[C@H](C)[C@H](NC(=O)[C@H](C)NC(=O)C12OC(=O)C3(O)C4C5CC(C6C5C3C61)C42)C(=O)N[C@@H](CO)C(N)=O` (some centres unmarked) [PCU-lactone-CO-AIS], in data set [2], the half-maximal inhibitory concentration (IC50) was found to be 830 nM. In turn, `CC[C@H](C)[C@H](NC(=O)[C@H](C)NC(=O)[C@H](CCC(=O)O)NC(=O)C12OC(=O)C3(O)C4C5CC(C6C5C3C61)C42)C(=O)N[C@@H](CO)C(N)=O` (some centres unmarked) [PCU-lactone-CO-EAIS] (X2-EAIS-NH2) yielded an IC50 in data set [2] of 850 ± 180 nM. For the same compound, the “IC50 relative to the corresponding cage lactam peptide” value in data set [2] (C-SA HIV-1 protease) was “eleven times weaker”. For `CC[C@H](C)[C@H](NC(=O)[C@H](C)NC(=O)[C@H](CCC(=O)O)NC(=O)C12OC(=O)C3(O)C4C5CC(C6C5C3C61)C42)C(N)=O` (some centres unmarked) [PCU-lactone-CO-EAI], inhibition in data set [2] was half-maximal at 2600 nM (IC50).

These data come from article PMC4387594, “Pentacycloundecane lactam vs lactone norstatine type protease HIV inhibitors: binding energy calculations and DFT study” (Journal of Biomedical Science, 2015).
